Source: article PMC3722118, “Hellebrin and its aglycone form hellebrigenin display similar in vitro growth inhibitory effects in cancer cells and binding profiles to the alpha subunits of the Na^+/K^+-ATPase” (Molecular Cancer, 2013)
Where two headings read alike, the source gives them in different places.

What was measured:
CT26 colon cancer cells = assay: MTT growth inhibition in mouse cancer cells; format: cell-based; conditions: mouse cancer cell line, read-out: IC50 growth inhibitory concentration in CT26 colon cancer cells
Text: (§1) The histological types and origins of the eight human cancer cell lines that were used for the MTT colorimetric assay are detailed in the legend of Table 1. Two mouse cancer cell lines were also used, the CT26.WT colon cancer cell line (ATCC code CRL-2638) and the B16F10 melanoma cell line (ATCC code CRL-6475). Both cell lines were obtained from the American Type Culture Collection (ATCC, Manassas, VA). A control cell line (human NHDF fibroblasts) was obtained from PromoCell (code c-12300; Heidelberg, Germany). The cell lines detailed in Figure 2A are a generous gift from the National Cancer Institute (NCI, Bethesda, USA) to Steven Karlish’s lab.
(§2) The cancer cells were cultured in RPMI (Lonza, Verviers, Belgium) medium supplemented with 10% heat-inactivated fetal calf serum (Lonza). […]
(§3) The overall growth level of the human cancer cell lines was determined using a colorimetric MTT (3-(4,5-dimethylthiazol-2yl)-2,5-diphenyltetrazolium bromide, Sigma, Belgium) assay as detailed previously. […] The amount of formazan obtained at the end of the experiment (measured by spectrophotometry) is directly proportional to the number of living cells. The determination of the optical density in the control compared to the treated cells therefore enables quantitative measurements of the effects of compounds on the growth of normal as well as cancer cells in vitro. […]

B16F10 melanoma cells = assay: MTT growth inhibition in mouse cancer cells; format: cell-based; conditions: B16-F10; mouse cancer cell line; read-out: IC50 growth inhibitory concentration in B16F10 melanoma cells
Text: as §1, §2, §3

human α1β1 NaK complex [1] = molecular target: T1, human α1β1 NaK complex (Homo sapiens, UniProt P05023); assay: 3H-ouabain competitive displacement on P. pastoris membranes; format: binding; conditions: 3H-ouabain displacement, three independent experiments; read-out: Affinity (nM) α-1 (KD ± SEM)
T1 construct: made in house; host or cells: Pichia pastoris strain SMD1165 (membranes)
Protocol: (§4) K0.5 was calculated using a one site inhibition model: B/BCG=0 = K0.5/([CG] + K0.5). […] Binding of each cardiac glycoside was estimated in 3 separate experiments.
(§5) Average KD or Ki values ± SEM for each isoform were calculated. Statistical significance was calculated by the unpaired Students t-test. P values <0.05 were considered significant.

human α3β1 NaK complex [2] = molecular target: T2, human α3β1 NaK complex (Homo sapiens, UniProt P13637); assay: as above; format: binding
T2 construct: made in house; host or cells: Pichia pastoris strain SMD1165 (membranes)
Protocol: as §4, §5

human α2β1 NaK complex [3] = molecular target: T3, human α2β1 NaK complex (Homo sapiens, UniProt P50993); assay: as above; format: binding
T3 construct: made in house; host or cells: Pichia pastoris strain SMD1165 (membranes)
Protocol: as §4, §5

[4] = tested on: human cancer cells (A549, U373, Hs683, T98G, MCF-7, SKMEL-28, PC-3, HT-29); assay: MTT growth inhibition, mean over the eight human cancer cell lines; format: cell-based; conditions: 72 h, read-out: IC50 (nM) Mean ± SEM
Text: as §1
(§6) The cancer cells were cultured in RPMI (Lonza, Verviers, Belgium) medium supplemented with 10% heat-inactivated fetal calf serum (Lonza). All culture media were supplemented with 4 mM glutamine, 100 μg/mL gentamicin, 200 U/mL penicillin and 200 μg/mL streptomycin (Lonza). The NHDF fibroblasts were cultured in Lonza medium cc3132 KT FGM-2 BulletKit.
(§7) The overall growth level of the human cancer cell lines was determined using a colorimetric MTT (3-(4,5-dimethylthiazol-2yl)-2,5-diphenyltetrazolium bromide, Sigma, Belgium) assay as detailed previously. Briefly, this test measures the number of metabolically active (thus living) cells that are able to transform the yellow MTT into the blue formazan dye via a mitochondrial reduction involving succinate dehydrogenase. The amount of formazan obtained at the end of the experiment (measured by spectrophotometry) is directly proportional to the number of living cells. The determination of the optical density in the control compared to the treated cells therefore enables quantitative measurements of the effects of compounds on the growth of normal as well as cancer cells in vitro.
(§8) Each experimental condition was performed in six replicates.

NHDF fibroblasts = assay: MTT growth inhibition in non-cancerous control cell line; format: cell-based; conditions: NHDF, normal human fibroblasts, read-out: in vitro growth inhibitory effects (IC50) in NHDF fibroblasts
Text: as §1, §6, §7, §8

HT-29 colon cancer cells [5] = assay: O2 consumption rate (MitoXpress assay); format: cell-based, human; conditions: compounds at their IC50 (MTT), 24 h
Protocol: For enzymatic determination of lactate production, confluent tumor cells were incubated with 10 mM glucose for 24 hours. Culture medium was then filtered through centrifugation columns with a 10 KDa cutoff, and L-lactate concentrations were determined on an ISCUSflex analyzer (CMA Microdialysis AB, Solna, Sweden). O2 consumption was determined using the MitoXpress assay according to the manufacturer’s instructions (LuxCell Biosciences, Cork, Ireland). Briefly, after adding the oxygen probe to tumor cells cultured for 24 hours in 96-well microplates with or without the tested compounds, the wells were sealed with mineral oil, and respiration was evaluated using time-resolved fluorescent plate readers. Under these conditions, O2 depletion was translated into an increase in probe phosphorescence signal, and the slope of this signal was used to derive the O2 consumption rate.
Figure 6 Metabolic profiling of human HT29 colon cancer cells treated with cardiotonic steroids. A: Extracellular lactate concentrations and B: O2 consumption rates in HT29 cancer cells treated with the indicated compounds at their IC50in vitro growth inhibitory concentrations (see Table 1). The data (mean ± SEM from triplicates) are expressed in mM lactate accumulated in the extracellular medium after 24 hours and arbitrary units derived from time-resolved fluorescent signal.min^-1.

[6] = tested on: PC-3 prostate cancer cells; assay: MTT colorimetric in vitro growth inhibition assay; format: cell-based, human; conditions: read-out: IC50 (nM) PC-3
Text: as §1, §6, §7, §8

U373 glioma cells = assay: MTT colorimetric in vitro growth inhibition assay; format: cell-based, human; conditions: read-out: IC50 (nM) U373
Text: as §1, §6, §7, §8

A549 NSCLC cells = assay: MTT colorimetric in vitro growth inhibition assay; format: cell-based, human; conditions: read-out: IC50 (nM) A549
Text: as §1, §6, §7, §8

[7] = tested on: MCF-7 breast cancer cells; assay: MTT colorimetric in vitro growth inhibition assay; format: cell-based, human; conditions: read-out: IC50 (nM) MCF-7
Text: as §1, §6, §7, §8

T98G glioma cells = assay: MTT colorimetric in vitro growth inhibition assay; format: cell-based, human; conditions: read-out: IC50 (nM) T98G
Text: as §1, §6, §7, §8

HT-29 colon cancer cells [8] = assay: MTT colorimetric in vitro growth inhibition assay; format: cell-based, human; conditions: read-out: IC50 (nM) HT-29
Text: as §1, §6, §7, §8

Hs683 glioma cells = assay: MTT colorimetric in vitro growth inhibition assay; format: cell-based, human; conditions: read-out: IC50 (nM) Hs683
Text: as §1, §6, §7, §8

SKMEL-28 melanoma cells = assay: MTT colorimetric in vitro growth inhibition assay; format: cell-based, human; conditions: read-out: IC50 (nM) SKMEL-28
Text: as §1, §6, §7, §8

human α1β1 NaK complex [9] = molecular target: T1, human α1β1 NaK complex; conditions: 3H-ouabain displacement; ref Katz et al. [5]; read-out: Affinity (nM) α-1 (KD ± SEM); cited from earlier work
human α3β1 NaK complex [10] = molecular target: T2, human α3β1 NaK complex; conditions: ref Katz et al. [5], cited from earlier work; for Kd: 3H-ouabain displacement, read-out: Affinity (nM) α-3 (KD ± SEM); for Selectivity α-1 / α-3: ratio of KD α-1 to KD α-3
human α2β1 NaK complex [11] = molecular target: T3, human α2β1 NaK complex; conditions: ref Katz et al. [5], cited from earlier work; for Kd: 3H-ouabain displacement, read-out: Affinity (nM) α-2 (KD ± SEM); for Selectivity α-1 / α-2: ratio of KD α-1 to KD α-2
[12] = mean over eight human cancer cell lines, three days of culture
[13] = Homo sapiens, 72 h, three days of culture, * three independent experiments, ** one experiment, six replicates
[14] = Homo sapiens, U373 MG, 72 h, three days of culture, * three independent experiments, ** one experiment, six replicates
[15] = Homo sapiens, A549, 72 h, three days of culture, * three independent experiments, ** one experiment, six replicates
[16] = Homo sapiens, MCF7, 72 h, three days of culture, * three independent experiments, ** one experiment, six replicates
[17] = Homo sapiens, T98G, 72 h, three days of culture, * three independent experiments, ** one experiment, six replicates
[18] = Homo sapiens, HT-29, 72 h, three days of culture, * three independent experiments, ** one experiment, six replicates
[19] = Homo sapiens, Hs 683, 72 h, three days of culture, * three independent experiments, ** one experiment, six replicates
[20] = Homo sapiens, SK-MEL-28, 72 h, three days of culture, * three independent experiments, ** one experiment, six replicates
[21] = three days of culture, * three independent experiments, ** one experiment, six replicates

SMILES	IC50 ([4]; Homo sapiens) [nM]	IC50 ([6]; Homo sapiens, 72 h) [nM]	IC50 (U373 glioma cells; Homo sapiens, U373 MG, 72 h) [nM]	IC50 (A549 NSCLC cells; Homo sapiens, A549, 72 h) [nM]	IC50 ([7]; Homo sapiens, MCF7, 72 h) [nM]	IC50 (T98G glioma cells; Homo sapiens, T98G, 72 h) [nM]	IC50 (HT-29 colon cancer cells [8]; Homo sapiens, HT-29, 72 h) [nM]	IC50 (Hs683 glioma cells; Homo sapiens, Hs 683, 72 h) [nM]	IC50 (SKMEL-28 melanoma cells; Homo sapiens, SK-MEL-28, 72 h) [nM]	Kd (human α1β1 NaK complex [9]) [nM]	Kd (human α3β1 NaK complex [10]) [nM]	Selectivity α-1 / α-3 (human α3β1 NaK complex [10])	IC50 [4, 12] [nM]	Kd (human α2β1 NaK complex [11]) [nM]	Selectivity α-1 / α-2 (human α2β1 NaK complex [11])	IC50 [6, 13] [nM]	IC50 (U373 glioma cells; [14]) [nM]	IC50 (A549 NSCLC cells; [15]) [nM]	IC50 [7, 16] [nM]	IC50 (T98G glioma cells; [17]) [nM]	further results
C[C@@H]1O[C@@H](O[C@H]2CC[C@@]3(C)[C@H](CC[C@@H]4[C@@H]3[C@H](O)C[C@]3(C)[C@@H](c5ccc(=O)oc5)CC[C@]43O)C2)[C@H](O)[C@H](O)[C@H]1O [Gamabufotalin-rhamnoside]	9 ± 2	6 ± 1	6 ± 2	3 ± 1	17 ± 5	7 ± 1	8 ± 1	4 ± 1	18 ± 7												IC50 (CT26 colon cancer cells): 900 nM; IC50 (B16F10 melanoma cells): 700 nM; Kd (human α1β1 NaK complex [1]): 30 ± 7 nM; Kd (human α3β1 NaK complex [2]; 3H-ouabain displacement, three independent experiments, read-out: Affinity (nM) α-3 (KD ± SEM)): 17 ± 2 nM; Selectivity α-1 / α-3 (human α3β1 NaK complex [2]; ratio of KD α-1 to KD α-3): 1.8; Kd (human α2β1 NaK complex [3]; 3H-ouabain displacement, three independent experiments, read-out: Affinity (nM) α-2 (KD ± SEM)): 36 ± 10 nM; Selectivity α-1 / α-2 (human α2β1 NaK complex [3]; ratio of KD α-1 to KD α-2): 0.8; IC50 (NHDF fibroblasts): 1840 nM; O2 consumption rate (cell respiration) (HT-29 colon cancer cells [5]): significantly reduced
C[C@]12CC[C@H](O)C[C@H]1CC[C@@H]1[C@@H]2CC[C@]2(C)[C@@H](C3=CC(=O)OC3)[C@@H](O)C[C@]12O [Gitoxigenin, gitoxigenin]										500 ± 90	1050	0.5	> 4250	1180	0.4	3960	4480	1720	5190	3590	IC50 (HT-29 colon cancer cells [8]; [18]): 4400 nM; IC50 (Hs683 glioma cells; [19]): 653 nM; IC50 (SKMEL-28 melanoma cells; [20]): > 10000 nM
C[C@H]1O[C@@H](O[C@H]2[C@@H](O)C[C@H](O[C@H]3[C@@H](O)C[C@H](O[C@H]4CC[C@@]5(C)[C@H](CC[C@@H]6[C@@H]5CC[C@]5(C)[C@@H](C7=CC(=O)OC7)[C@@H](O)C[C@]65O)C4)O[C@@H]3C)O[C@@H]2C)C[C@H](O)[C@@H]1O [Gitoxin]	362 ± 96	361	351	68	828	174	352	79	679	123 ± 8	108 ± 17	1.1		85 ± 3	1.5						
C[C@@H]1O[C@@H](O[C@H]2CC[C@@]3(C)[C@@H](CC[C@@H]4[C@@H]3CC[C@]3(C)[C@@H](C5=CC(=O)OC5)CC[C@]43O)C2)[C@H](O)[C@H](O)[C@H]1O [Uzarigenin-rhamnoside]										90 ± 20	122 ± 9	0.7	147 ± 55	96 ± 7	0.9	77	247	45	469	38	IC50 (HT-29 colon cancer cells [8]; [18]): 41 nM; IC50 (Hs683 glioma cells; [19]): 38 nM; IC50 (SKMEL-28 melanoma cells; [20]): 222 nM
C[C@]12CC[C@H](O)C[C@@H]1CC[C@@H]1[C@@H]2CC[C@]2(C)[C@@H](C3=CC(=O)OC3)CC[C@]12O [Uzarigenin]										1100	1280	0.9		883 ± 56	1.3						IC50 [6, 21]: 6280 nM; IC50 (U373 glioma cells; [21]): 7920 nM; IC50 (A549 NSCLC cells; [21]): 3170 nM; IC50 [7, 21]: > 10000 nM; IC50 (T98G glioma cells; [21]): 5140 nM; IC50 (HT-29 colon cancer cells [8]; [21]): 6440 nM; IC50 (Hs683 glioma cells; [21]): 2250 nM; IC50 (SKMEL-28 melanoma cells; [21]): > 10000 nM
